From article PMC12389534, “Unlocking Therapeutic Potential of Novel Thieno-Oxazepine Hybrids as Multi-Target Inhibitors of AChE/BChE and Evaluation Against Alzheimer’s Disease: In Vivo, In Vitro, Histopathological, and Docking Studies” (Pharmaceuticals, 2025)
“Also recorded” adds a separate entry of the source.

Tests used:
[1] = tested on: AlCl3-induced AD rat model; assay: Y-maze SAP test in AlCl3-induced AD rats; format: in vivo; conditions: for SAP%: mean ± SE, n = 6
Description: All procedures were conducted conforming to the applicable National Institutes of Health standards and regulations for the Care and Use of Laboratory Animals. In this experiment, adult male Dawley rats in excellent condition weighing between 300 and 320 g were used. The animals were acquired from the Nile Company for Pharmaceuticals and Chemical Industries (Cairo, Egypt). They were placed in a controlled laboratory setting with unrestricted access to water, a temperature range of 24 to 26 °C, and 12 h a light–dark cycle. Three rats per cage were housed in polycarbonate cages that were individually packed with paper and encased with stainless steel wire.
One kind of short-term memory that SAP can represent is spatial working memory. Three arms, designated A, B, or C, were employed in a black hardwood Y-maze with a symmetrical triangular core space. Rats were briefly positioned at the edge of one arm and given 8 min to freely navigate around the maze. When the rat’s rear paws were fully inside the arm, the entries were counted. The following formula was used to determine SAP based on the total number of arm entries and alternations: SAP (%) = [number of alternations/(total arm entries − 2)] × 100 [94].

BACE1 = assay: Brain BACE1 level (ELISA); format: in vivo, rat; set-up: reduction of BACE1 levels: concentration or dose not given beside the values; conditions: AlCl3-induced AD rats; for BACE1 (ng/mL): mean ± SE, n = 6
Description: The brain tissues of the rats were removed and rigorously washed in isotonic saline 24 h after they were euthanized following the last behavioral test. For histological investigation, four brains per group were preserved for the whole night in 10% neutral buffered formalin. The remaining six brains were split into two sections each. In order to create a 10% homogenate (w/v), the first component was instantaneously homogenized using an ice-cold solution that included 300 mM sucrose and 50 mM Tris-HCl (pH 7.4). The homogenate was centrifuged at 1800× g for 10 min at 4 °C for biochemical tests, and the supernatant was thereafter kept at −20 °C. The second portion was set aside for use in RT-PCR analysis at −80 °C [94]. […]

DA = assay: Brain DA level (fluorometric); format: in vivo, rat; conditions: AlCl3-induced AD rats; for DA (ng/g Tissue): brain tissue, mean ± SE, n = 6
Description: (§1) The brain tissues of the rats were removed and rigorously washed in isotonic saline 24 h after they were euthanized following the last behavioral test. For histological investigation, four brains per group were preserved for the whole night in 10% neutral buffered formalin. The remaining six brains were split into two sections each. In order to create a 10% homogenate (w/v), the first component was instantaneously homogenized using an ice-cold solution that included 300 mM sucrose and 50 mM Tris-HCl (pH 7.4). The homogenate was centrifuged at 1800× g for 10 min at 4 °C for biochemical tests, and the supernatant was thereafter kept at −20 °C. The second portion was set aside for use in RT-PCR analysis at −80 °C [94].
(§2) Brain monoamine levels were promptly assessed following the rats’ euthanasia to prevent changes in the substance’s concentration. Dopamine (DA), norepinephrine (NE), and serotonin (5-HT) fluorometric tests were conducted on brain tissue homogenate using the Ciarlone method. […] The concentrations were articulated as nanograms per gram of fresh tissue using the fluorescence of reference solutions [95].

NE = assay: Brain NE level (fluorometric); format: in vivo, rat; conditions: AlCl3-induced AD rats; for NE (nmol/g Tissue): brain tissue, mean ± SE, n = 6
Description: as §1, §2

BDNF = assay: Brain BDNF level (ELISA); format: in vivo, rat; conditions: AlCl3-induced AD rats; for BDNF (ng/mL): brain tissue, mean ± SE, n = 6
Description: as §1
(§3) See Supplementary Information.

AChE = format: in vivo; set-up: reduction in AChE levels: concentration or dose not given beside the values; conditions: AlCl3-induced AD rats; for AChE (ng/g Tissue): brain tissue, mean ± SE, n = 6; for reduction in AChE levels: brain
TLR4 = TLR4 mRNA expression (RT-qPCR); format: in vivo, rat; set-up: reduction of TLR4 mRNA expression: concentration or dose not given beside the values; conditions: AlCl3-induced AD rats; for TLR4: mRNA expression level, mean ± SE, n = 6
Description: as §1, §3

NFκβ = NFκβ mRNA expression (RT-qPCR); format: in vivo, rat; set-up: reduction of NFκβ mRNA expression: concentration or dose not given beside the values; conditions: AlCl3-induced AD rats; for NFκβ: mRNA expression level, mean ± SE, n = 6
Description: as §1, §3

Caspase-1 = Caspase-1 gene expression (RT-qPCR); format: in vivo, rat; set-up: reduction of Caspase-1 levels: concentration or dose not given beside the values; conditions: AlCl3-induced AD rats; for Caspase-1: gene expression, mean ± SE, n = 6
Description: as §1, §3

Bcl-2 = Bcl-2 gene expression (RT-qPCR); format: in vivo, rat; conditions: AlCl3-induced AD rats; for Bcl-2: gene expression, mean ± SE, n = 6
Description: as §1, §3

Wnt3a = assay: Brain Wnt3a level; format: in vivo, rat; conditions: AlCl3-induced AD rats; for Wnt3a (ng/g Tissue): mean ± SE, n = 6
Description: as §1, §3

β-catenin = assay: Brain β-catenin level; format: in vivo, rat; conditions: AlCl3-induced AD rats; for β-Catenin (ng/L): mean ± SE, n = 6
Description: as §1, §3

SOD = assay: Brain SOD activity (colorimetric); format: in vivo, rat; conditions: AlCl3-induced AD rats; for SOD(U/g): brain tissue, mean ± SE, n = 6
Description: as §1
(§4) The SOD enzyme activity was estimated using the Marklund et al. method, which is founded on the enzyme’s capacity to decrease the nitro blue tetrazolium dye at a wavelength of 540 nm. To evaluate the TAC, a colorimetric approach was employed to estimate the amount of hydrogen peroxide that remains after 3,5-dichloro-2-hydroxybenzene sulphonate is converted to a colored product at 660 nm.

TAC = assay: Brain TAC (colorimetric); format: in vivo, rat; conditions: AlCl3-induced AD rats; for TAC (µmol/g Tissue): brain tissue, mean ± SE, n = 6
Description: as §1, §4

MDA = assay: Brain MDA content (thiobarbituric acid method); format: in vivo, rat; set-up: reduction in MDA brain content: concentration or dose not given beside the values; conditions: AlCl3-induced AD rats; for MDA (nmol/g Tissue): brain tissue, mean ± SE, n = 6
HO-1 = HO-1 mRNA expression (RT-qPCR); format: in vivo, rat; conditions: AlCl3-induced AD rats; for HO-1: mRNA expression in brain tissue, mean ± SE, n = 6
Description: as §1, §3

[2] = tested on: brain tissue (CC, ST, FD, SN neurons); assay: Histopathological examination of brain tissue; format: in vivo, rat; conditions: brain sections, H&E; AlCl3-induced AD rats
Description: as §1
Brain tissue samples were stationed in 10% formalin for 24 h, washed with water, and then serially diluted with alcohol to induce dehydration. After being submerged in paraffin, the specimens were cut into segments that were 4 µm thick using a microtome.

Compound	SAP% [1]	reduction of BACE1 levels (BACE1) [%]	BACE1 (ng/mL) (BACE1)	DA (ng/g Tissue) (DA)	NE (nmol/g Tissue) (NE)	BDNF (ng/mL) (BDNF)	AChE (ng/g Tissue) (AChE)	reduction in AChE levels (AChE) [%]	TLR4 (TLR4)	NFκβ (NFκβ)	Caspase-1 (Caspase-1)	Bcl-2 (Bcl-2)	elevation of Wnt3a levels (Wnt3a) [fold]	Wnt3a (ng/g Tissue) (Wnt3a)	elevation of β-catenin levels (β-catenin) [fold]	β-Catenin (ng/L) (β-catenin)	SOD(U/g) (SOD)	improvement of TAC levels (TAC) [times]	TAC (µmol/g Tissue) (TAC)	reduction in MDA brain content (MDA) [%]	also measured
CCOc1ccc(N2CC(=O)Oc3sc4c(c3C2=O)CCCCC4)cc1 [Compound 14, 4-(4-Ethoxyphenyl)-3,4,7,8,9,10-hexahydro-6H-cyclohepta[4,5]thieno[3,2-f][1,4]oxazepine-2,5-dione]	77.5 ± 2.11 ^abc %	43.8	16.66 ± 0.38 ^abc ng/mL	51.88 ± 2.66 ^abc ng/g Tissue	386.7 ± 2.66 ^abc nmol/g Tissue	115.8 ± 0.07 ^abc ng/mL	19.4 ± 0.39 ^abc ng/g Tissue	71.2	3.60 ± 0.12 ^abc	3.73 ± 0.04 ^abc	5.08 ± 0.050 ^abc	0.70 ± 0.004 ^abc	4	0.66 ± 0.02 ^abc ng/g Tissue	5.3	8.4 ± 0.09 ^abc ng/L	2.38 ± 0.78 ^abc U/g	3.8	36.96 ± 0.51 ^abc µmol/g Tissue	59	elevation of DA levels (DA): 4.3 fold; rise in the level of NE (NE): 2.1 times; elevation of BDNF levels (BDNF): 2.7 fold; reduction of TLR4 mRNA expression (TLR4): 62.6%; reduction of NFκβ mRNA expression (NFκβ): 56%; reduction of Caspase-1 levels (Caspase-1): 46.6%; upregulation of Bcl-2 gene expression (Bcl-2): 5.8 fold; MDA (nmol/g Tissue) (MDA): 47.6 ± 0.12 ^abc nmol/g Tissue; elevation of HO-1 mRNA expression (HO-1): 5.3 fold; HO-1 (HO-1): 0.64 ± 0.009 ^abc; histopathological finding in CC, ST, FD and SN (NP = nuclear pyknosis) [2]: moderate NP in CC, FD, and SN, normal histology of neurons in ST; also recorded: significant pyknosis
O=C1CN(c2ccccc2)C(=O)c2c(sc3c2CCCCC3)O1 [Compound 11, 4-Phenyl-3,4,7,8,9,10-hexahydro-6H-cyclohepta[4,5]thieno[3,2-f][1,4]oxazepine-2,5-dione]	69.67 ± 1.69 ^abc %	36.5	18.83 ± 0.13 ^abc ng/mL	54.63 ± 6.11 ^abc ng/g Tissue	321.2 ± 6.11 ^abc nmol/g Tissue	127.3 ± 0.01 ^abc ng/mL	20.09 ± 0.45 ^abc ng/g Tissue	70.1	5.56 ± 0.1 ^abc	4.93 ± 0.08 ^abc	5.92 ± 0.040 ^abc	0.52 ± 0.020 ^abc	3.9	0.47 ± 0.01 ^abc ng/g Tissue	4.8	7.25 ± 0.04 ^abc ng/L	2.46 ± 0.32 ^abc U/g	4	38.23 ± 0.50 ^abc µmol/g Tissue	68.4	increase in SAP% [1]: 22%; elevation of DA levels (DA): 4.6 fold; rise in the level of NE (NE): 1.7 times; elevation of BDNF levels (BDNF): 3 fold; reduction of TLR4 mRNA expression (TLR4): 42.2%; reduction of NFκβ mRNA expression (NFκβ): 41.8%; reduction of Caspase-1 levels (Caspase-1): 37.8%; upregulation of Bcl-2 gene expression (Bcl-2): 4.3 fold; MDA (nmol/g Tissue) (MDA): 36.75 ± 0.09 ^abc nmol/g Tissue; elevation of HO-1 mRNA expression (HO-1): 4.4 fold; HO-1 (HO-1): 0.53 ± 0.004 ^abc; histopathological finding in CC, ST, FD and SN (NP = nuclear pyknosis) [2]: mild NP in neurons in CC and moderate NP in ST, FD, and SN; also recorded: minor NP in the CC and significant NP in FD, ST, and SN
CCOC(=O)c1c(OC(=O)CCl)sc2c1CCCCC2 [Compound 4, Ethyl 2-(2-chloroacetoxy)-5,6,7,8-tetrahydro-4H-cyclohepta[b]thiophene-3-carboxylate]	72.67 ± 1.02 ^abc %	26.2	21.89 ± 0.27 ^abc ng/mL	30.69 ± 1.2 ^abc ng/g Tissue	282.6 ± 1.2 ^abc nmol/g Tissue	75.75 ± 0.01 ^abc ng/mL	43.89 ± 0.19 ^abc ng/g Tissue	34.8	6.39 ± 0.12 ^abc	5.77 ± 0.19 ^abc	6.46 ± 0.120 ^abc	0.38 ± 0.020 ^abc	2.8	0.34 ± 0.01 ^abc ng/g Tissue	3.9	6.17 ± 0.07 ^abc ng/L	1.75 ± 0.31 ^abc U/g	2.7	25.87 ± 0.965 ^abc µmol/g Tissue	33.6	SOD activity levels (SOD; brain): 1.75 U/g tissue; MDA (nmol/g Tissue) (MDA): 77.14 ± 0.06 ^abc nmol/g Tissue; HO-1 (HO-1): 0.39 ± 0.007 ^abc; histopathological finding in CC, ST, FD and SN (NP = nuclear pyknosis) [2]: moderate NP in CC and SN, a moderate number of necrotic neurons in FD, as well as normal histology of ST neurons; also recorded: significant NP in the CC, FD, and SN, whereas the striatal neurons’ histological structures remained normal
